Drawing on PubChem BioAssay AID248 (DTP/NCI, 2004), this text covers T/C for 27 compounds.

The experiment relates to L1210 leukemia ip in BDF1 mice, survival T/C. As to the kind of experiment: NCI In Vivo Anticancer Drug Screen. Data for tumor model L1210 Leukemia (intraperitoneal) in B6D2F1 (BDF1) mice. The settings on record: endpoint: mean survival time, higher = longer survival. A digest of the protocol:
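Value reflects the ratio of survival in compound-treated mice to survival in vehicle-treated controls, with both groups carrying the same transplanted tumor.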

Setting [1] is: dose: 12.5 mg/kg/injection, schedule: Q04DX002 (ip), vehicle: saline with Tween-80.
The mark [2] stands for this setting: dose: 50.0 mg/kg/injection, schedule: Q01DX001 (ip), vehicle: saline.
Where [3] appears, read: dose: 100.0 mg/kg/injection, schedule: Q01DX001 (ip), vehicle: saline.
Where [4] appears, read: dose: 12.5 mg/kg/injection, schedule: Q04DX003 (ip), vehicle: Klucel (hydroxypropylcellulose) (HPC).
[5] abbreviates: dose: 25.0 mg/kg/injection, schedule: Q04DX003 (ip), vehicle: Klucel (hydroxypropylcellulose) (HPC).
Where [6] appears, read: dose: 50.0 mg/kg/injection, schedule: Q04DX003 (ip), vehicle: Klucel (hydroxypropylcellulose) (HPC).
[7] abbreviates: dose: 100.0 mg/kg/injection, schedule: Q01DX009 (ip), vehicle: Klucel (hydroxypropylcellulose) (HPC).
[8] abbreviates: dose: 100.0 mg/kg/injection, schedule: Q04DX003 (ip), vehicle: Klucel (hydroxypropylcellulose) (HPC).
[9] abbreviates: dose: 100.0 mg/kg/injection, schedule: Q01DX009 (ip), vehicle: saline.
Setting [10] is: dose: 200.0 mg/kg/injection, schedule: Q01DX009 (ip), vehicle: saline.
The mark [11] stands for this setting: dose: 100.0 mg/kg/injection, schedule: Q04DX003 (ip), vehicle: saline.
Where [12] appears, read: dose: 200.0 mg/kg/injection, schedule: Q04DX003 (ip), vehicle: saline.
Where [13] appears, read: dose: 400.0 mg/kg/injection, schedule: Q04DX003 (ip), vehicle: saline.
Where [14] appears, read: dose: 200.0 mg/kg/injection, schedule: Q04DX003 (ip), vehicle: Klucel (hydroxypropylcellulose) (HPC).
The mark [15] stands for this setting: dose: 400.0 mg/kg/injection, schedule: Q04DX003 (ip), vehicle: Klucel (hydroxypropylcellulose) (HPC).
The mark [16] stands for this setting: dose: 400.0 mg/kg/injection, schedule: Q01DX009 (ip), vehicle: saline.
Setting [17] is: dose: 100.0 mg/kg/injection, schedule: Q01DX001 (ip), vehicle: carboxymethylcellulose (CMC).
Where [18] appears, read: dose: 200.0 mg/kg/injection, schedule: Q01DX001 (ip), vehicle: carboxymethylcellulose (CMC).
Where [19] appears, read: dose: 400.0 mg/kg/injection, schedule: Q01DX001 (ip), vehicle: carboxymethylcellulose (CMC).
Setting [20] is: dose: 100.0 mg/kg/injection, schedule: Q01DX009 (ip), vehicle: saline with Tween-80.
The mark [21] stands for this setting: dose: 200.0 mg/kg/injection, schedule: Q01DX009 (ip), vehicle: saline with Tween-80.
Setting [22] is: dose: 400.0 mg/kg/injection, schedule: Q01DX009 (ip), vehicle: saline with Tween-80.
[23] abbreviates: dose: 100.0 mg/kg/injection, schedule: Q04DX003 (ip), vehicle: saline with Tween-80.
[24] abbreviates: dose: 200.0 mg/kg/injection, schedule: Q04DX003 (ip), vehicle: saline with Tween-80.
[25] abbreviates: dose: 400.0 mg/kg/injection, schedule: Q04DX003 (ip), vehicle: saline with Tween-80.
The mark [26] stands for this setting: dose: 200.0 mg/kg/injection, schedule: Q01DX001 (ip), vehicle: saline.
The mark [27] stands for this setting: dose: 400.0 mg/kg/injection, schedule: Q01DX001 (ip), vehicle: saline.
The mark [28] stands for this setting: dose: 200.0 mg/kg/injection, schedule: Q01DX009 (ip), vehicle: Klucel (hydroxypropylcellulose) (HPC).

Where “and” joins values, the source holds several entries; their conditions need not be identical. Equal entries are not always repeated. Inconclusive results and toxic doses are left out.

On to `Cc1cc(N)c(S)cc1C`, for which the T/C is, setting by setting: under setting [1], 108 % of control; (dose: 25.0 mg/kg/injection, schedule: Q04DX002 (ip), vehicle: saline with Tween-80) 90 % of control; under setting [2], 94 % of control; (dose: 50.0 mg/kg/injection, schedule: Q04DX002 (ip), vehicle: saline with Tween-80) 101 % of control; under setting [3], 91 % of control.
Consider `N#Cc1c(CSC(=N)N)sc2ccccc12`, for which the T/C under setting [4] is 102 % of control; the T/C (dose: 25.0 mg/kg/injection, schedule: Q01DX009 (ip), vehicle: Klucel (hydroxypropylcellulose) (HPC)) was 105 % of control; the T/C under setting [5] is 101 % of control; the T/C (dose: 50.0 mg/kg/injection, schedule: Q01DX009 (ip), vehicle: Klucel (hydroxypropylcellulose) (HPC)) was 101 % of control; the T/C under setting [6] is 96 % of control; the T/C under setting [7] was 100 % of control. Also, under setting [8], the T/C is 98 % of control.
For the compound `O=[N+]([O-])c1ccc(NCc2ccccc2)c2nonc12`, the T/C is, setting by setting: (dose: 50.0 mg/kg/injection, schedule: Q01DX009 (ip), vehicle: saline) 113 % of control; under setting [9], 98 % of control; under setting [10], 113 % of control.
Turning to `COC(=O)c1cc2ccccc2c2c1OCN(C)C2`, the T/C by setting is: under setting [2], 113 % of control; under setting [3], 110 % of control.
In the case of `Oc1cc[c]([Hg][Cl])cc1`, the T/C is 105 % of control under setting [4], 111 % of control under setting [5] and 99 % of control under setting [6].
For `C=CP(c1ccccc1)c1ccccc1`, the T/C by setting is: (dose: 100.0 mg/kg/injection, schedule: Q01DX009 (ip), vehicle: saline sonified) 103 % of control; (dose: 200.0 mg/kg/injection, schedule: Q01DX009 (ip), vehicle: saline sonified) 110 % of control.
With `O=Cc1c[nH]c2ccc(Br)cc12`, the T/C under setting [11] was 95 % of control, the T/C under setting [12] is 105 % of control and the T/C under setting [13] was 95 % of control.
Take `Nc1ccc2ccccc2c1-c1c(N)ccc2ccccc12`: the T/C is, setting by setting: (dose: 75.0 mg/kg/injection, schedule: Q04DX002 (ip), vehicle: saline with Tween-80) 109 % of control; under setting [8], 97 % of control; under setting [14], 103 % of control; (dose: 300.0 mg/kg/injection, schedule: Q04DX002 (ip), vehicle: saline with Tween-80) 94 % of control; under setting [15], 88 % of control.
Consider `CCN(CC)CCCC(C)Nc1cc(N)nc2nc(-c3ccccc3)c(-c3ccccc3)nc12` (stereo not given), for which the T/C is, setting by setting: (dose: 9.5 mg/kg/injection, schedule: Q01DX001 (ip), vehicle: other) 89 % of control; (dose: 38.0 mg/kg/injection, schedule: Q01DX001 (ip), vehicle: other) 87 % of control; (dose: 75.0 mg/kg/injection, schedule: Q01DX001 (ip), vehicle: other) 96 % of control.
In the case of `CC(=O)OCC(O)CO` (stereo not given), the T/C was 102 % of control under setting [9], 96 % of control under setting [10] and 102 % of control under setting [16].
Consider `OCC(c1ccccc1)C(O)Cc1ccccc1` (stereo not given), for which the T/C is, setting by setting: under setting [17], 97 % of control; under setting [18], 95 % of control; under setting [19], 101 % of control.
Regarding `CC(C(=O)c1ccc(-c2ccccc2)cc1)C(Cl)c1ccccc1` (stereo not given), the T/C under setting [20] was 106 % of control, the T/C under setting [21] was 94 % of control and the T/C under setting [22] is 97 % of control.
`CC(=O)NCc1cccc[n+]1[O-]`: the T/C (dose: 25.0 mg/kg/injection, schedule: Q04DX002 (ip), vehicle: saline) is 110 % of control; the T/C (dose: 50.0 mg/kg/injection, schedule: Q04DX002 (ip), vehicle: saline) is 105 % of control; the T/C (dose: 100.0 mg/kg/injection, schedule: Q04DX002 (ip), vehicle: saline) was 101 % of control and 105 % of control.
As to `CCCCOC(=O)C1CCCC1=O` (stereo not given), the T/C runs as follows: under setting [20], 94 % of control; under setting [23], 97 % of control; under setting [21], 103 % of control; under setting [24], 94 % of control; under setting [22], 95 % of control; under setting [25], 97 % of control.
For the compound `CNS(=O)(=O)c1ccc(Cl)cc1`, the T/C is 95 % of control under setting [3]; 118 % of control under setting [20]; 98 % of control under setting [9]; 101 % of control under setting [26]; 94 % of control under setting [21]; 96 % of control under setting [27].
Turning to `C=CCCCCCCCCC(=O)NCCCC(OCC)OCC`, the T/C under setting [11] is 106 % of control, the T/C under setting [12] is 95 % of control and the T/C under setting [13] is 95 % of control.
Consider `CCOC(=O)/C=C/C(F)(F)C(F)(F)C(F)(F)C(F)(F)C(F)(F)C(F)(F)C(F)(F)F`, for which the T/C was 98 % of control under setting [9], 105 % of control under setting [10] and 105 % of control under setting [16].
For the compound `CCCCN=C(C(=O)NCCCC)c1ccccc1NC(C)=O`, the T/C under setting [7] was 97 % of control and the T/C under setting [28] was 86 % of control.
On to `Cc1ccc(Cl)cc1NC(=O)c1ccccc1`, for which the T/C by setting is: under setting [7], 89 % of control; under setting [8], 95 % of control; under setting [28], 100 % of control; under setting [14], 106 % of control; (dose: 400.0 mg/kg/injection, schedule: Q01DX009 (ip), vehicle: Klucel (hydroxypropylcellulose) (HPC)) 94 % of control; under setting [15], 95 % of control.
On to `CC(=O)/C=C/c1ccc([N+](=O)[O-])cc1`, for which the T/C runs as follows: (dose: 100.0 mg/kg/injection, schedule: Q04DX003 (ip), vehicle: saline sonified) 95 % of control; (dose: 200.0 mg/kg/injection, schedule: Q04DX003 (ip), vehicle: saline sonified) 89 % of control; (dose: 400.0 mg/kg/injection, schedule: Q04DX003 (ip), vehicle: saline sonified) 92 % of control.
For the compound `O=C1C=C(c2ccccc2)CO1`, the T/C was 104 % of control under setting [3], 122 % of control under setting [26] and 98 % of control under setting [27].
With `O=C(OCC1OC(c2ccccc2)OC1C1OC(c2ccccc2)OC1COC(=O)c1ccccc1)c1ccccc1` (stereo not given), the T/C is 103 % of control under setting [3], 110 % of control under setting [26] and 110 % of control under setting [27].
Take `CCOC(=O)C12CCCCC1=CC1(CC2)SCCS1` (stereo not given): the T/C (dose: 100.0 mg/kg/injection, schedule: Q01DX009 (ip), vehicle: acetone) is 88 % of control; the T/C (dose: 200.0 mg/kg/injection, schedule: Q01DX009 (ip), vehicle: acetone) is 91 % of control; the T/C (dose: 400.0 mg/kg/injection, schedule: Q01DX009 (ip), vehicle: acetone) was 246 % of control.
Consider `ClCc1c2ccccc2cc2ccccc12`, for which the T/C was 101 % of control (dose: 6.25 mg/kg/injection, schedule: Q04DX002 (ip), vehicle: saline with Tween-80) and 101 % of control under setting [1].
For the compound `O=C(Nc1ccc(Cl)cc1Cl)c1cc(Cl)cc(Cl)c1Br`, the T/C was 101 % of control under setting [23], 92 % of control under setting [24] and 92 % of control under setting [25].
As to `O=C(NCCc1ccccc1)Nc1cc([N+](=O)[O-])ccc1F`, the T/C is, setting by setting: under setting [8], 94 % of control; under setting [14], 96 % of control; under setting [15], 102 % of control.
With `c1ccc2c(c1)Sc1ccccc1S2`, the T/C reads like this: (dose: 50.0 mg/kg/injection, schedule: Q01DX001 (ip), vehicle: carboxymethylcellulose (CMC)) 106 % of control; under setting [17], 112 % of control; under setting [18], 101 % of control; under setting [19], 104 % of control.
